Test results published in US20230391786A1, “cGAS INHIBITORS” (Eli Lilly and Company, priority 2022, published 2023).
Structures can show the parent of a compound that is named as a salt. Where two headings read alike, the source gives them in different places.

What was measured:
recombinant human cGAS = recombinant human cGAS (Homo sapiens (Human), UniProt Q8N884); test: In vitro inhibition assay of cGAS activity (cGAMP production, RapidFire mass spectrometry); format: biochemical; conditions: 10 nM recombinant human cGAS, 60 nM 75-bp dsDNA, ATP, GTP, room temperature 3 hours, read-out: IC50 (μM), In vitro inhibition assay for Compounds 95-348
Chain of recombinant human cGAS (Q8N884 whole entry): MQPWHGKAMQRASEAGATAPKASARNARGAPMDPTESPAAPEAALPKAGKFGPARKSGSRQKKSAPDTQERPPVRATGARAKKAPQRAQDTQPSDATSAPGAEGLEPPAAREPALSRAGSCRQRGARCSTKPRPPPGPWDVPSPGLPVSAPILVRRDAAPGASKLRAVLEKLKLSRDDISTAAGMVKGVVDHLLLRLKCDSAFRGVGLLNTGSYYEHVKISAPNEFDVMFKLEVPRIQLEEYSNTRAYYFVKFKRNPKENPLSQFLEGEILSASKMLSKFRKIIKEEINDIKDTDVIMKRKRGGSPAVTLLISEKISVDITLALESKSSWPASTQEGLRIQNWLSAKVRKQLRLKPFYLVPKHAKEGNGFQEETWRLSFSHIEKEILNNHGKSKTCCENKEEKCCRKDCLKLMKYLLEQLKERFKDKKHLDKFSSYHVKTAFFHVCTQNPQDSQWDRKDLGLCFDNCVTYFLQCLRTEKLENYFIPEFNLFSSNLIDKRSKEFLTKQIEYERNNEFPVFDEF
Summary of the method: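 Full-length His6-tagged human cGAS (10 nM, E. coli-expressed) was incubated 3 h at room temperature with 60 nM 75-bp dsDNA, ATP, 50 μM GTP and compound at pH 7.5 with 5 mM MgCl2. cGAMP formation was measured by RapidFire mass spectrometry, and IC50 was taken from a 4-parameter logistic fit.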

[1] = test system: cGAS activity in THP1 cells (IFNb as marker); test: Cellular assay to measure cGAS activity (IFNb production in PMA-differentiated THP1 cells stimulated by RDG-Adenovirus-GFP); format: cell-based, human; conditions: PMA differentiated, RDG-Adenovirus-GFP 1000 MOI, IFNb AlphaLISA, overnight incubation, read-out: IC50 (μM), Cellular assay for Compounds 95-348
Summary of the method: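 PMA-differentiated THP1 cells were infected with RDG-Adenovirus-GFP at 1000 MOI for 4 h, then exposed overnight to test compounds. IFNb in the supernatant was quantified by AlphaLISA as a cGAS activity marker, and IC50 was fitted with a 4-parameter logistic equation.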

[2] = Homo sapiens, THP-1, THP1 cells

SMILES	IC50 (recombinant human cGAS) [µM]	IC50 [1, 2] [µM]	IC50 ([1]; THP1 cells) [µM]
OCCCn1cc(-n2cc(-c3cn[nH]c3)c3ccc(Cl)c(Cl)c32)nn1 [Example 139, 3-[4-[6,7-Dichloro-3-(1H-pyrazol-4-yl)indol-1-yl]triazol-1-yl]propan-1-ol]	0.077	5.13	–
CNNc1cc(Cl)c(Cl)c2[nH]cc(-c3cn[nH]c3)c12 [Example 215, 1-[6,7-Dichloro-3-(1H-pyrazol-4-yl)-1H-indol-4-yl]-2-methyl-hydrazine hydrochloride]	0.0864	2.59	–
CC(C)(O)C(=O)NC1CCc2c(-c3cn[nH]c3)c3ccc(Cl)c(Cl)c3n2C1 (stereo not shown) [Example 189, N-[3,4-Dichloro-10-(1H-pyrazol-4-yl)-6,7,8,9-tetrahydropyrido[1,2-a]indol-7-yl]-2-hydroxy-2-methyl-propanamide]	0.0272	1.89	–
NCCn1cc(-n2cc(-c3cn[nH]c3)c3ccc(Cl)cc32)nn1 [Example 228, 2-[4-[6-Chloro-3-(1H-pyrazol-4-yl)indol-1-yl]triazol-1-yl] ethanamine formic acid salt]	0.0493	1.46	–
CC(=O)NCCS(=O)(=O)NC1CCc2c(-c3cn[nH]c3)c3ccc(Cl)c(Cl)c3n2C1 (stereo not shown) [Example 119, N-(2-(N-(3,4-Dichloro-10-(1H-pyrazol-4-yl)-6,7,8,9-tetrahydropyrido[1,2-a]indol-7-yl)sulfamoyl)ethyl)acetamide]	0.0186	3.66	–
O[C@H]1CC[C@H](Nc2cc(Cl)c(Cl)c3[nH]cc(-c4cn[nH]c4)c23)C1 (racemic) [Example 209, trans-3-[[6,7-Dichloro-3-(1H-pyrazol-4-yl)-1H-indol-4-yl]amino]cyclopentanol (racemic mixture)]	0.0158	0.351	–
CC(=O)N1CCOC(CCN2CCn3c(c(-c4cn[nH]c4)c4c(OCC#N)cc(Cl)c(Cl)c43)C2=O)C1 (stereo not shown) [Example 151, 2-[[2-[2-(4-Acetylmorpholin-2-yl)ethyl]-6,7-dichloro-1-oxo-10-(1H-pyrazol-4-yl)-3,4-dihydropyrazino[1,2-a]indol-9-yl]oxy]acetonitrile]	0.0349	> 10	–
O[C@H]1C[C@@H](Oc2cc(Cl)c(Cl)c3[nH]cc(-c4cn[nH]c4)c23)C1 [Example 207, Cis-3-[[6,7-Dichloro-3-(1H-pyrazol-4-yl)-1H-indol-4-yl]oxy]cyclobutanol]	0.042	1.63	–
O=C1NCC(C(=O)N2CCn3c(c(-c4cn[nH]c4)c4ccc(Cl)c(Cl)c43)C2)O1 (stereo not shown) [Example 180, 5-[6,7-Dichloro-10-(1H-pyrazol-4-yl)-3,4-dihydro-1H-pyrazino[1,2-a]indole-2-carbonyl]oxazolidin-2-one]	0.018	1.85	–
CN(C)C(=O)CCC(=O)N1CCn2c(c(-c3cn[nH]c3)c3c(OCC#N)cc(Cl)c(Cl)c32)C1 [Example 113, 4-[6,7-Dichloro-9-(cyanomethoxy)-10-(1H-pyrazol-4-yl)-3,4-dihydro-1H-pyrazino[1,2-a]indol-2-yl]-N,N-dimethyl-4-oxo-butanamide]	0.018	3.46	–
NCC(=O)NCc1[nH]c2c(Cl)c(Cl)ccc2c1-c1cn[nH]c1 [Example 216, 2-Amino-N-[[6,7-dichloro-3-(1H-pyrazol-4-yl)-1H-indol-2-yl]methyl]acetamide formic acid salt]	0.0598	4.17	–
OCC(O)Cn1cc(-n2cc(-c3cn[nH]c3)c3ccc(Cl)c(Cl)c32)nn1 (stereo not shown) [Example 140, 3-[4-[6,7-Dichloro-3-(1H-pyrazol-4-yl)indol-1-yl]triazol-1-yl]propane-1,2-diol]	0.0481	7.11	–
CC(=O)NC1CCCn2c1c(-c1cn[nH]c1)c1c(OCC#N)cc(Cl)c(Cl)c12 (stereo not shown) [Example 202, N-[3,4-Dichloro-1-(cyanomethoxy)-10-(1H-pyrazol-4-yl)-6,7,8,9-tetrahydropyrido[1,2-a]indol-9-yl]acetamide]	0.0191	2.68	–

Continued, values first:

IC50 (recombinant human cGAS) [µM]	IC50 [1, 2] [µM]	IC50 ([1]; THP1 cells) [µM]	SMILES
0.0124	0.281	–	O=C(Nc1cc(Cl)c(Cl)c2[nH]nc(-c3cn[nH]c3)c12)C(F)F [Example 337, N-(6,7-Dichloro-3-(1H-pyrazol-4-yl)-1H-indazol-4-yl)-2,2-difluoroacetamide]
0.0106	4.27	–	Cn1cnc(C(=O)N2CCn3c(c(-c4cn[nH]c4)c4c(OCC#N)cc(Cl)c(Cl)c43)C2)n1 [Example 283, 2-((6,7-Dichloro-2-(1-methyl-1H-1,2,4-triazole-3-carbonyl)-10-(1H-pyrazol-4-yl)-1,2,3,4-tetrahydropyrazino[1,2-a]indol-9-yl)oxy)acetonitrile]
0.0257	> 10	–	O=C(CC1COCCO1)N1CCn2c(c(-c3cn[nH]c3)c3ccc(Cl)c(Cl)c32)C1 (stereo not shown) [Example 299, 1-(6,7-Dichloro-10-(1H-pyrazol-4-yl)-3,4-dihydropyrazino[1,2-a]indol-2(1H)-yl)-2-(1,4-dioxan-2-yl)ethan-1-one]
0.00896	2.99	–	Cc1nc(C(=O)N2CCn3c(c(-c4cn[nH]c4)c4c(OCC#N)cc(Cl)c(Cl)c43)C2)no1 [Example 282, 2-((6,7-Dichloro-2-(5-methyl-1,2,4-oxadiazole-3-carbonyl)-10-(1H-pyrazol-4-yl)-1,2,3,4-tetrahydropyrazino[1,2-a]indol-9-yl)oxy)acetonitrile]
0.0313	9.23	–	CS(=O)(=O)NC1Cc2c(-c3cn[nH]c3)c3ccc(Cl)c(Cl)c3n2C1 (stereo not shown) [Example 246, N-(5,6-Dichloro-9-(1H-pyrazol-4-yl)-2,3-dihydro-1H-pyrrolo[1,2-a]indol-2-yl)methanesulfonamide]
0.0399	6.27	–	O=C(Cc1cnccn1)N1CCn2c(c(-c3cn[nH]c3)c3ccc(Cl)c(Cl)c32)C1 [Example 267, 1-[6,7-Dichloro-10-(1H-pyrazol-4-yl)-3,4-dihydro-1H-pyrazino[1,2-a]indol-2-yl]-2-pyrazin-2-yl-ethanone]
0.0373	–	0.765	O=C1NCC(C(=O)N2CCn3c(c(-c4cn[nH]c4)c4ccc(Cl)c(Cl)c43)C2)O1 (single isomer, unassigned) [Example 259, 5-[6,7-Dichloro-10-(1H-pyrazol-4-yl)-3,4-dihydro-1H-pyrazino[1,2-a]indole-2-carbonyl]oxazolidin-2-one]
0.0365	4.08	–	N#CCOc1cc(Cl)c(Cl)c2c1c(-c1cn[nH]c1)c1n2CCN(C(=O)CCn2cncn2)C1 [Example 292, 2-((2-(3-(1H-1,2,4-Triazol-1-yl)propanoyl)-6,7-dichloro-10-(1H-pyrazol-4-yl)-1,2,3,4-tetrahydropyrazino[1,2-a]indol-9-yl)oxy)acetonitrile]
0.0396	–	> 10	O=C(CO)NC1Cc2c(-c3cn[nH]c3)c3ccc(Cl)c(Cl)c3n2C1 (single isomer, unassigned) [Example 248, N-(5,6-Dichloro-9-(1H-pyrazol-4-yl)-2,3-dihydro-1H-pyrrolo[1,2-a]indol-2-yl)-2-hydroxyacetamide]
0.0325	4.91	–	CN1CC(C(=O)N2CCn3c(c(-c4cn[nH]c4)c4c(OCC#N)cc(Cl)c(Cl)c43)C2)CC1=O (stereo not shown) [Example 291, 2-((6,7-Dichloro-2-(1-methyl-5-oxopyrrolidine-3-carbonyl)-10-(1H-pyrazol-4-yl)-1,2,3,4-tetrahydropyrazino[1,2-a]indol-9-yl)oxy)acetonitrile]
